From article PMC12543283, “TastepepAI: An artificial intelligence platform for taste peptide de novo design” (PLOS Computational Biology, 2025)
Ends that are not written are not given here.

Assays:
[1] = tested on: human pancreatic ductal epithelial cells (HPNE)
[2] = tested on: human bronchial epithelial cells (BEAS-2B)
[3] = tested on: human embryonic kidney cells (HEK293T)
[4] = Electronic tongue analysis (Taste-Sensing System SA 402B); design: unit not given here; conditions: reference solution 30 mM KCl + 0.3 mM tartaric acid as baseline, first measurement excluded; for Umami: sensor AAE; for Umami / Bitter / Sweet: detection threshold 0, room temperature; for Umami / Bitter / Sour / Salty: four replicates; for Sour: detection threshold -13, room temperature; for Salty: detection threshold -6, room temperature; for Sweet: measured five times
Outline: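 Samples were tested at 0.1 and 1.0 mg/mL on an SA 402B e-tongue fitted with sourness, saltiness, bitterness, sweetness and umami sensors, with 30 mM KCl/0.3 mM tartaric acid as reference and baseline. Thresholds were −13 for sour, −6 for salty and 0 for the rest. Runs at room temperature: four replicates, five for sweetness, first reading discarded.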

[5] = tested on: human umbilical vein endothelial cells (HUVEC)
Method: The cytotoxicity of 73 synthetic peptides was evaluated using four human cell lines: human pancreatic ductal epithelial cells (HPNE), human embryonic kidney cells (HEK293T), human umbilical vein endothelial cells (HUVEC), and human bronchial epithelial cells (BEAS-2B). When cell density reached 70% confluence, the complete culture medium was replaced with serum-free maintenance medium, and peptides were added at a final concentration of 100 μM for 36 h. Control groups received only serum-free maintenance medium without peptides. Cell proliferation was assessed using the CCK-8 assay kit (Solarbio, CA1210) according to the manufacturer’s instructions.

Substance | Average cell viability, HPNE [1] | Cell viability, HPNE, Data1 [1] | Cell viability, HPNE, Data2 [1] | Cell viability, HPNE, Data3 [1] | Average cell viability, BEAS-2B [2] | Cell viability, BEAS-2B, Data1 [2] | Cell viability, BEAS-2B, Data2 [2] | Cell viability, BEAS-2B, Data3 [2] | Average cell viability, HEK293T [3] | Cell viability, HEK293T, Data1 [3] | Cell viability, HEK293T, Data2 [3] | Cell viability, HEK293T, Data3 [3] | Umami ([4]; peptide 0.1 mg/mL) | Umami ([4]; peptide 1 mg/mL) | Bitter ([4]; sensor C00, peptide 0.1 mg/mL) | Bitter ([4]; sensor C00, peptide 1 mg/mL) | Sour ([4]; sensor CA0, peptide 0.1 mg/mL) | Sour ([4]; sensor CA0, peptide 1 mg/mL) | Salty ([4]; sensor CT0, peptide 0.1 mg/mL) | Salty ([4]; sensor CT0, peptide 1 mg/mL) | further results
AKDEKEL [TaPep1] | 94.74 | 92.35 | 92.15 | 99.73 | 108.54 | 105.88 | 114.46 | 105.28 | 101.23 | 110.16 | 98.99 | 94.54 | 2.15 | -3.64 | 10.96 | 3.53 | -4.53 | 9.07 | -19.14 | 13.72 | Sweet ([4]; sensor GL1, peptide 0.1 mg/mL): 6.22; Sweet ([4]; sensor GL1, peptide 1 mg/mL): -3.13; Average cell viability, HUVEC [5]: 97.71; Cell viability, HUVEC, Data1 [5]: 96.99; Cell viability, HUVEC, Data2 [5]: 94.60; Cell viability, HUVEC, Data3 [5]: 101.54
KADGNR [TaPep4] | 97.84 | 95.76 | 97.39 | 100.36 | 96.81 | 99.00 | 95.11 | 96.31 | 102.74 | 102.11 | 102.49 | 103.63 | 1.35 | -5.17 | 7.74 | 1.90 | -2.92 | 13.79 | -16.43 | 17.52 | Sweet ([4]; sensor GL1, peptide 0.1 mg/mL): 4.21; Sweet ([4]; sensor GL1, peptide 1 mg/mL): -5.50; Average cell viability, HUVEC [5]: 105.16; Cell viability, HUVEC, Data1 [5]: 113.12; Cell viability, HUVEC, Data2 [5]: 102.98; Cell viability, HUVEC, Data3 [5]: 99.39
VPDELN [TaPep23] | 99.63 | 105.82 | 109.52 | 83.56 | 102.53 | 109.87 | 92.32 | 105.38 | 90.54 | 91.61 | 84.89 | 95.11 | 1.53 | -4.39 | 7.18 | 3.47 | -3.15 | 11.00 | -22.67 | 6.69 | Sweet ([4]; sensor GL1, peptide 0.1 mg/mL): 5.26; Sweet ([4]; sensor GL1, peptide 1 mg/mL): -4.58; Average cell viability, HUVEC [5]: 97.76; Cell viability, HUVEC, Data1 [5]: 98.19; Cell viability, HUVEC, Data2 [5]: 95.72; Cell viability, HUVEC, Data3 [5]: 99.39
KNDESVD [TaPep48] | 102.66 | 87.85 | 109.32 | 110.82 | 98.21 | 105.18 | 91.23 | 98.21 | 103.91 | 103.15 | 102.59 | 105.99 | 1.19 | -4.97 | 7.92 | 4.06 | -2.20 | 12.29 | -19.00 | 9.10 | Sweet ([4]; sensor GL1, peptide 0.1 mg/mL): 5.24; Sweet ([4]; sensor GL1, peptide 1 mg/mL): -3.88; Average cell viability, HUVEC [5]: 107.58; Cell viability, HUVEC, Data1 [5]: 110.24; Cell viability, HUVEC, Data2 [5]: 102.34; Cell viability, HUVEC, Data3 [5]: 110.16
APEELDA [TaPep36] | 113.58 | 114.11 | 111.61 | 115.01 | 102.92 | 111.17 | 103.39 | 94.22 | 103.41 | 103.44 | 102.11 | 104.67 | 0.55 | -6.54 | 7.85 | 3.11 | -0.61 | 17.06 | -18.92 | 13.68 | Sweet ([4]; sensor GL1, peptide 0.1 mg/mL): 5.62; Sweet ([4]; sensor GL1, peptide 1 mg/mL): -8.13; Average cell viability, HUVEC [5]: 101.78; Cell viability, HUVEC, Data1 [5]: 93.96; Cell viability, HUVEC, Data2 [5]: 95.80; Cell viability, HUVEC, Data3 [5]: 115.59
LWGPVT [TaPep72] | 101.26 | 115.31 | 97.84 | 90.65 | 100.50 | 118.74 | 92.32 | 90.43 | 100.76 | 102.49 | 95.02 | 104.76 | 2.15 | -4.42 | 7.25 | 3.83 | -4.62 | 11.06 | -19.66 | 7.83 | Sweet ([4]; sensor GL1, peptide 0.1 mg/mL): 7.58; Sweet ([4]; sensor GL1, peptide 1 mg/mL): -5.31; Average cell viability, HUVEC [5]: 99.47; Cell viability, HUVEC, Data1 [5]: 107.29; Cell viability, HUVEC, Data2 [5]: 101.62; Cell viability, HUVEC, Data3 [5]: 89.49
